Structures are written as SMILES. Read-outs that look alike come from different tables or passages of the source.

One test relates to Mino cells. Description: Antiproliferative effect, MTS cell viability assay, Mino cells. The following applies: Homo sapiens, MINO, Mino mantle cell lymphoma cells; read-out: IC50 (anti-proliferation) Mino cells. Format: cell-based. A digest of the protocol: (§1)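 MTS read-out, A490 of formazan from metabolically active cells; compound 0–10 μM (0, 0.001, 0.01, 0.1, 1, 10 μM), 72 h exposure.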

The target in a further test is BTK (Homo sapiens, UniProt Q06187). As to the kind of experiment: Degradation of BTK protein in Namalwa cells (Western blot; DC50, Dmax). The conditions noted are these: for DC50: cell line not given.
Another test concerns JeKo-1 cells. As to the kind of experiment: Antiproliferative effect, MTS cell viability assay, JeKo-1 cells. The following applies: Homo sapiens; JeKo-1 mantle cell lymphoma cells; read-out: IC50 (anti-proliferation) JeKO-1 cells. Type of test: cell-based. A digest of the protocol: as §1
Setting [1] is: read-out: DC50 (BTK degradation), concentration giving 50% reduction of BTK expression level.
Where [2] appears, read: read-out: Dmax (BTK degradation).

Sequence of BTK (Q06187 whole entry): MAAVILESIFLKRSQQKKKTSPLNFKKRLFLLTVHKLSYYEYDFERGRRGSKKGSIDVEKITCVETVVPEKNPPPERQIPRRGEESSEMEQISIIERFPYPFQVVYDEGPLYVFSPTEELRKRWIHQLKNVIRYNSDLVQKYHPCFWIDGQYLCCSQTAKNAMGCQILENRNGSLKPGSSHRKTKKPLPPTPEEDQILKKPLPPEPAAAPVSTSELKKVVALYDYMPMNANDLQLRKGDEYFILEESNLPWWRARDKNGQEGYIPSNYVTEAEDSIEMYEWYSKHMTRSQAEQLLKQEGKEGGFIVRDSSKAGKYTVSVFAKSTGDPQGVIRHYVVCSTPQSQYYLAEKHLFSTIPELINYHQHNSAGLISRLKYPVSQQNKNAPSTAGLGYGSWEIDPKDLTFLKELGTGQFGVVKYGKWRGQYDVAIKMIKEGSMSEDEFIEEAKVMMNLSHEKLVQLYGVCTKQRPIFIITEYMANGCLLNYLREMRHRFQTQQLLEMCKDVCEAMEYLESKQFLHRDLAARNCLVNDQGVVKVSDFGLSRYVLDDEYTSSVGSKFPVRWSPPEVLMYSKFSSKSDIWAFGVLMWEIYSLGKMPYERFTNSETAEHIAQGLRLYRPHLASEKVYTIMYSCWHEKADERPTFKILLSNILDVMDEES

By Dmax is commonly meant the largest share of the target that was removed. In general, DC50 refers to the concentration at which degradation of the target reaches its halfway point. Take `NC(=O)c1c(-c2ccc(Oc3ccccc3)cc2)nn2c1NCC[C@H]2C1CCN(C2CCN(C(=O)N3CCN(C4CCN(c5ccc6c(c5)CN(C5CCC(=O)NC5=O)C6=O)CC4)CC3)CC2)CC1` (stereo partly drawn) [Compound 386, (7S)-7-(1′-(4-(1-(2-(2,6-dioxopiperidin-3-yl)-1-oxoisoindolin-5-yl)piperidin-4-yl)piperazine-1-carbonyl)-[1,4′-bipiperidin]-4-yl)-2-(4-phenoxyphenyl)-4,5,6,7-tetrahydropyrazolo[1,5-a]pyrimidine-3-carboxamide]: the IC50 in the test with Mino cells and with JeKo-1 cells was less than 1 µM each time. Also, the Dmax on BTK was more than 90%. The compound also displayed a DC50 at BTK (BTK degradation) of less than 0.01 µM.
Consider `NC(=O)c1c(-c2ccc(Oc3ccccc3)cc2)nn2c1NCC[C@H]2C1CCN(C2CCN(C(=O)N3CCC(N4CCC(c5ccc6c(c5)C(=O)N(C5CCC(=O)NC5=O)C6=O)CC4)CC3)CC2)CC1` (stereo partly drawn) [Compound 387, (7S)-7-(1′-(4-(2-(2,6-dioxopiperidin-3-yl)-1,3-dioxoisoindolin-5-yl)-[1,4′-bipiperidine]-1′-carbonyl)-[1,4′-bipiperidin]-4-yl)-2-(4-phenoxyphenyl)-4,5,6,7-tetrahydropyrazolo[1,5-a]pyrimidine-3-carboxamide], for which the IC50 in the test on Mino cells and in the test with JeKo-1 cells was 1 to 10 µM throughout. At BTK, the Dmax is more than 90%. Besides, the DC50 at BTK (BTK degradation) is 0.01 to 0.05 µM.
`NC(=O)c1c(-c2ccc(Oc3ccccc3)cc2)nn2c1NCC[C@H]2C1CCN(C2CCN(C(=O)N3CCC(N4CCC(c5ccc6c(c5)CN(C5CCC(=O)NC5=O)C6=O)CC4)CC3)CC2)CC1` (stereo partly drawn) [Compound 388, (7S)-7-(1′-(4-(2-(2,6-dioxopiperidin-3-yl)-1-oxoisoindolin-5-yl)-[1,4′-bipiperidine]-1′-carbonyl)-[1,4′-bipiperidin]-4-yl)-2-(4-phenoxyphenyl)-4,5,6,7-tetrahydropyrazolo[1,5-a]pyrimidine-3-carboxamide]: the results for the IC50 with Mino cells and in the test with JeKo-1 cells were less than 1 µM and 1 to 10 µM, respectively. The compound also yielded a Dmax at BTK of more than 90%. At BTK (BTK degradation), the DC50 is 0.01 to 0.05 µM.
For `NC(=O)c1c(-c2ccc(Oc3ccccc3)cc2)nn2c1NCC[C@H]2C1CCN(C2CCN(C(=O)N3CCC(CN4CCN(c5ccc6c(c5)C(=O)N(C5CCC(=O)NC5=O)C6=O)CC4)CC3)CC2)CC1` (stereo partly drawn) [Compound 389, (7S)-7-(1′-(4-((4-(2-(2,6-dioxopiperidin-3-yl)-1,3-dioxoisoindolin-5-yl)piperazin-1-yl)methyl)piperidine-1-carbonyl)-[1,4′-bipiperidin]-4-yl)-2-(4-phenoxyphenyl)-4,5,6,7-tetrahydropyrazolo[1,5-a]pyrimidine-3-carboxamide], in that order: 1 to 10 µM, 1 to 10 µM, more than 90% and 0.01 to 0.05 µM.
In the same order, the values of `NC(=O)c1c(-c2ccc(Oc3ccccc3)cc2)nn2c1NCC[C@H]2C1CCN(C2CCN(C(=O)N3CCC(CN4CCN(c5ccc6c(c5)CN(C5CCC(=O)NC5=O)C6=O)CC4)CC3)CC2)CC1` (stereo partly drawn) [Compound 390, (7S)-7-(1′-(4-((4-(2-(2,6-dioxopiperidin-3-yl)-1-oxoisoindolin-5-yl)piperazin-1-yl)methyl)piperidine-1-carbonyl)-[1,4′-bipiperidin]-4-yl)-2-(4-phenoxyphenyl)-4,5,6,7-tetrahydropyrazolo[1,5-a]pyrimidine-3-carboxamide] are 1 to 10 µM, more than 10 µM, more than 90% and 0.01 to 0.05 µM.
`NC(=O)c1c(-c2ccc(Oc3ccccc3)cc2)nn2c1NCC[C@H]2C1CCN(C2CCN(C(=O)N3CCN(CC4CCN(c5ccc6c(c5)C(=O)N(C5CCC(=O)NC5=O)C6=O)CC4)CC3)CC2)CC1` (stereo partly drawn) [Compound 391, (7S)-7-(1′-(4-((1-(2-(2,6-dioxopiperidin-3-yl)-1,3-dioxoisoindolin-5-yl)piperidin-4-yl)methyl)piperazine-1-carbonyl)-[1,4′-bipiperidin]-4-yl)-2-(4-phenoxyphenyl)-4,5,6,7-tetrahydropyrazolo[1,5-a]pyrimidine-3-carboxamide]: the IC50 in the test on Mino cells and in the test with JeKo-1 cells was more than 10 µM each time. The Dmax on BTK was more than 75%. For the same compound, on BTK (BTK degradation), the DC50 fell in the range of 0.01 to 0.05 µM.
Turning to `NC(=O)c1c(-c2ccc(Oc3ccccc3)cc2)nn2c1NCC[C@H]2C1CCN(C2CCN(C(=O)N3CCN(CC4CCN(c5ccc6c(c5)CN(C5CCC(=O)NC5=O)C6=O)CC4)CC3)CC2)CC1` (stereo partly drawn) [Compound 392, (7S)-7-(1′-(4-((1-(2-(2,6-dioxopiperidin-3-yl)-1-oxoisoindolin-5-yl)piperidin-4-yl)methyl)piperazine-1-carbonyl)-[1,4′-bipiperidin]-4-yl)-2-(4-phenoxyphenyl)-4,5,6,7-tetrahydropyrazolo[1,5-a]pyrimidine-3-carboxamide], the IC50 in the test on Mino cells was less than 1 µM; in the test on JeKo-1 cells, 1 to 10 µM. Further, on BTK, the Dmax was more than 90%. Moreover, the 50% degradation concentration (DC50) at BTK (BTK degradation) was in the range of 0.01 to 0.05 µM.
Regarding `NC(=O)c1c(-c2ccc(Oc3ccccc3)cc2)nn2c1NCC[C@H]2C1CCN(C2CCN(C(=O)N3CCC(CC4CCN(c5ccc6c(c5)C(=O)N(C5CCC(=O)NC5=O)C6=O)CC4)CC3)CC2)CC1` (stereo partly drawn) [Compound 393, (7S)-7-(1′-(4-((1-(2-(2,6-dioxopiperidin-3-yl)-1,3-dioxoisoindolin-5-yl)piperidin-4-yl)methyl)piperidine-1-carbonyl)-[1,4′-bipiperidin]-4-yl)-2-(4-phenoxyphenyl)-4,5,6,7-tetrahydropyrazolo[1,5-a]pyrimidine-3-carboxamide], the IC50 in the test on Mino cells and in the test with JeKo-1 cells was 1 to 10 µM in each case. Moreover, at BTK (setting [1]), the half-maximal degradation concentration (DC50) lay within 0.01 to 0.05 µM. For the same compound, at BTK (setting [2]), the Dmax was more than 75%.
Regarding `NC(=O)c1c(-c2ccc(Oc3ccccc3)cc2)nn2c1NCC[C@H]2C1CCN(C2CCN(C(=O)N3CCC(CC4CCN(c5ccc6c(c5)CN(C5CCC(=O)NC5=O)C6=O)CC4)CC3)CC2)CC1` (stereo partly drawn) [Compound 394, (7S)-7-(1′-(4-((1-(2-(2,6-dioxopiperidin-3-yl)-1-oxoisoindolin-5-yl)piperidin-4-yl)methyl)piperidine-1-carbonyl)-[1,4′-bipiperidin]-4-yl)-2-(4-phenoxyphenyl)-4,5,6,7-tetrahydropyrazolo[1,5-a]pyrimidine-3-carboxamide], the results for the IC50 in the test with Mino cells and with JeKo-1 cells were less than 1 µM and 1 to 10 µM, respectively. Besides, at BTK (setting [1]), the DC50 lay in the range of 0.01 to 0.05 µM. The Dmax on BTK (setting [2]) is more than 75%.
In the same order, the values of `NC(=O)c1c(-c2ccc(Oc3ccccc3)cc2)nn2c1NCC[C@H]2C1CCN(C2CCN(C(=O)N3CCC(CN4CCC(c5ccc6c(c5)C(=O)N(C5CCC(=O)NC5=O)C6=O)CC4)CC3)CC2)CC1` (stereo partly drawn) [Compound 395, (7S)-7-(1′-(4-((4-(2-(2,6-dioxopiperidin-3-yl)-1,3-dioxoisoindolin-5-yl)piperidin-1-yl)methyl)piperidine-1-carbonyl)-[1,4′-bipiperidin]-4-yl)-2-(4-phenoxyphenyl)-4,5,6,7-tetrahydropyrazolo[1,5-a]pyrimidine-3-carboxamide] are 1 to 10 µM, 1 to 10 µM, 0.01 to 0.05 µM and more than 75%.

The values above are taken from patent US12139492B2 (Endotarget Inc., priority 2021, dated 2024).
